Numbers after ± are expanded uncertainties.
Test: mn = molality of the nth substance listed, in mol/kg
Details: Liquid; for viscosity: Falling or rolling sphere viscometry; for electrical conductivity: Frequency=0.0003 MHz, Alternating current cell with electrodes; for mass density: Vibrating tube method

NCC(=O)O [2-aminoacetic acid] + O
87 kPa
Details	electrical conductivity, m1 = 0.1 [S/m]	electrical conductivity, m1 = 0.3 [S/m]	electrical conductivity, m1 = 0.5 [S/m]	mass density, m1 = 0.1 [kg/m3]	mass density, m1 = 0.3 [kg/m3]	mass density, m1 = 0.5 [kg/m3]	viscosity, m1 = 0.1 [mPa·s]	viscosity, m1 = 0.3 [mPa·s]	viscosity, m1 = 0.5 [mPa·s]
288.15 K	0.000925 ± 0.00014	0.00227 ± 0.00014	0.00355 ± 0.00014	1002.42 ± 1.4	1008.66 ± 1.4	1014.9 ± 1.4	1.144 ± 0.031	1.176 ± 0.031	1.208 ± 0.031
298.15 K	0.000963 ± 0.00014	0.00239 ± 0.00014	0.00381 ± 0.00014	1000.23 ± 1.4	1006.29 ± 1.4	1012.35 ± 1.4	0.924 ± 0.031	0.95 ± 0.031	0.984 ± 0.031
308.15 K	0.00101 ± 0.00014	0.00253 ± 0.00014	0.0041 ± 0.00014	–	1003.23 ± 1.4	1009.25 ± 1.4	0.729 ± 0.03	0.749 ± 0.03	0.77 ± 0.031
318.15 K	0.00106 ± 0.00014	0.00269 ± 0.00014	0.00445 ± 0.00014	993.28 ± 1.4	999.24 ± 1.4	1005.2 ± 1.4	0.613 ± 0.03	0.638 ± 0.03	0.662 ± 0.03

C[C@H](N)C(=O)O [(S)-2-aminopropanoic acid] + O
Details	electrical conductivity, m1 = 0.1 [S/m]	electrical conductivity, m1 = 0.3 [S/m]	electrical conductivity, m1 = 0.5 [S/m]	mass density, m1 = 0.1 [kg/m3]	mass density, m1 = 0.3 [kg/m3]	mass density, m1 = 0.5 [kg/m3]	viscosity, m1 = 0.1 [mPa·s]	viscosity, m1 = 0.3 [mPa·s]	viscosity, m1 = 0.5 [mPa·s]
288.15 K, 87 kPa	0.000237 ± 0.00014	0.000567 ± 0.00014	0.000861 ± 0.00014	–	–	–	–	–	–
288.15 K, 100 kPa	–	–	–	1002.1 ± 1.4	1007.7 ± 1.4	1013.3 ± 1.4	1.16 ± 0.031	1.223 ± 0.031	1.286 ± 0.031
298.15 K, 87 kPa	0.000293 ± 0.00014	0.000659 ± 0.00014	0.000968 ± 0.00014	–	–	–	–	–	–
298.15 K, 100 kPa	–	–	–	999.97 ± 1.4	1005.51 ± 1.4	1011.05 ± 1.4	0.91 ± 0.031	0.955 ± 0.031	1.001 ± 0.031
308.15 K, 87 kPa	0.000357 ± 0.00014	0.000783 ± 0.00014	0.00117 ± 0.00014	–	–	–	–	–	–
308.15 K, 100 kPa	–	–	–	996.94 ± 1.4	1002.42 ± 1.4	1007.9 ± 1.4	0.738 ± 0.03	0.774 ± 0.031	0.809 ± 0.031
318.15 K, 87 kPa	0.000441 ± 0.00014	0.000946 ± 0.00014	0.00141 ± 0.00014	–	–	–	–	–	–
318.15 K, 100 kPa	–	–	–	993.09 ± 1.4	998.47 ± 1.4	1003.85 ± 1.4	0.613 ± 0.03	0.649 ± 0.031	0.685 ± 0.03

Source: the NIST ThermoML archive (doi:10.1016/j.jct.2016.07.047)
